Data as given in US9259389B2, “Pharmaceutical oral dosage form containing a synthetic oligosaccharide” (ENDOTIS PHARMA, priority 2009, dated 2016).
Read-outs that look alike come from different tables or passages of the source. Each block holds one compound with its values, some of them ahead of it.

Assay: Bioavailability after Direct Intra-Duodenal Infusion (DIDI) administration in rat
Format: in vivo
Details: for bioavailability: female, Wistar Han, plasma, other: direct intra-duodenal infusion (DIDI), read-out: DIDI (bioavailability F after Direct Intra-Duodenal Infusion)
From the text: Pharmacokinetic Study after Direct Intra-Duodenal Injection:
Direct Intra-Duodenal Infusion (DIDI) has been performed in fasted female Wistar Han rats (175-250 g) to determine the ability of oligosaccharide compounds, in a formulation according to the present invention, to cross the intestinal barrier.
Animals were anesthetized with isoflurane gas in a closed induction chamber and held under anesthesia (3% isoflurane and 2.4 l/min rate) until sacrifice at the end of the experiment. After shaving, a laparotomy was performed and the duodenum exposed. A small pore was created upper the bile duct into the duodenum using a high temperature cautery fine tip. A flexible catheter was inserted into the duodenal lumen through the hole and the upper part of the duodenum was closed and the catheter immobilized by clipping with a forceps. A syringe containing the formulation according to the present invention and diluted as indicated below was placed onto the flexible catheter and the syringe's plunger was slowly depressed releasing the material into the duodenum. Immediately after, a 0.9% NaCl solution was injected (50 μl) to ensure complete compound administration. At this step, peritoneal cavity and skin of the rats were closed using silk suture.
The dose of the oligosaccharide compound according to the present invention to be administrated is 2 mg/kg of body weight or 4 mg/kg of body weight. Therefore, each rat received the quantity of the formulation corresponding to this dosage (i.e. for the dose of 2 mg/kg of body weight, 0.4 mg per rat of 200 g, corresponding to 40 mg of formulation for a formulation containing 1% by weight of the oligosaccharide), diluted extemporaneously at ambient temperature in water for injection with a total volume of administration of 500 μl.
Sometimes, it can be advantageous to first heat the formulation to 37° C. for 15 min under agitation to optimize dilution of the formulation.
Blood samples were collected over a certain period of time (in general 0.25; 0.5; 1; 1.5; 2; 2.5 h) and plasma analyzed as described below.
Quantification of the Compounds in Plasma:
Plasma concentration of the synthetic oligosaccharide (μg compound/mL plasma) was determined using a bioassay based on the factor Xa inhibitory activity of the compounds in the presence of antithrombin (AT). First, AT was added in excess to the plasma sample, allowing 1/1 oligosaccharide/AT complex formation. Factor Xa was then added in excess, and remaining active factor Xa was determined by spectrophotometry at 405 nm using a chromogenic reagent as a substrate. A dose-response curve was established for each compound to be quantified in rat plasma.
Pharmacokinetic Study after Intravenous Administration: […]

Compound: CO[C@H]1O[C@H](COS(=O)(=O)O)[C@@H](O[C@@H]2O[C@@H](C(=O)O)[C@@H](O[C@H]3O[C@H](COS(=O)(=O)O)[C@@H](O[C@@H]4O[C@H](C(=O)O)[C@@H](O[C@H]5O[C@H](COS(=O)(=O)O)[C@@H](O)[C@H](O)[C@H]5NS(=O)(=O)O)[C@H](O)[C@H]4O)[C@H](OS(=O)(=O)O)[C@H]3NS(=O)(=O)O)[C@H](O)[C@H]2OS(=O)(=O)O)[C@H](O)[C@H]1NS(=O)(=O)O [Fondaparinux, reference compound]
bioavailability (active: sodium fondaparinux, dose delivered 2 mg/kg, AUC0-2 DIDI vs intravenous): 3%

Compound: CCCCOC1C(COS(=O)(=O)[O-])OC(OC2C(OC)C(OC)C(OC3C(COS(=O)(=O)[O-])OC(OC4COC(OC5C(COS(=O)(=O)[O-])OC(OC)C(OS(=O)(=O)[O-])C5O)[C@H](OCC(=O)[O-])C4OC)C(OS(=O)(=O)[O-])C3OS(=O)(=O)[O-])OC2(CC)C(=O)[O-])C(N)C1OCCCC.[Na+].[Na+].[Na+].[Na+].[Na+].[Na+].[Na+].[Na+] (stereo partly shown) [Sodium salt of 122 without formulation]
bioavailability (active: sodium salt of compound 122, AUC0-2 DIDI vs intravenous): 2.5 ± 1%

Compound: CCC1(C(=O)[O-])OC(OC2C(COS(=O)(=O)[O-])OC(OC3COC(OC4C(COS(=O)(=O)[O-])OC(OC)C(OS(=O)(=O)[O-])C4OC)[C@H](OCC(=O)[O-])C3OC)C(OS(=O)(=O)[O-])C2OS(=O)(=O)[O-])C(OC)C(OC)C1OC1OC(COS(=O)(=O)[O-])C(OCCOCCOCCOCCN)C(OC)C1OC.[Na+].[Na+].[Na+].[Na+].[Na+].[Na+].[Na+].[Na+] (stereo partly shown) [Sodium salt of 147 without formulation]
bioavailability (active: sodium salt of compound 147, AUC0-2 DIDI vs intravenous): 1 ± 10%

DIDI (bioavailability F after Direct Intra-Duodenal Infusion) (active: Fondaparinux Benzathine, 2 mg/kg, AUC0-2 DIDI vs intravenous): 2 ± 1%
Compound: Fondaparinux Benzathine
